Holding throughout (type): physicochemical
Data set [1] in a line: Variable temperature X-ray powder diffraction (crystal form stability). The note with it: up to 125° C., increments of 25° C. As for the experimental part:
Variable temperature X-ray powder diffraction patterns were obtained on a Siemens D5000 X-ray powder diffractometer which was equipped with a CuKα source (λ=1.54056) operated at 50 kV and 40 mA with a scintillation detector and nickel filter. The powder was packed into a top-loading, recessed temperature controlled holder and a smooth surface was obtained for diffraction. The sample was scanned from 2 to 35° 2θ at 2.5 seconds per step size of 0.04° beginning at 25° C. after an equilibration time of 5 minutes. Subsequent scans were obtained at increasing temperature increments of 25° C. to a maximum of 125° C.

The next data set is described as follows: Aqueous solubility.
The nature of data set [2]: Moisture sorption/desorption isotherm. The conditions noted are these: over the range of 0-95% RH, 25° C. An excerpt:
It is most commonly used to study to study desolvation processes and quantatively determine the total volatile content of a solid. DSC is a technique that is often used to screen compounds for polymorphism because the temperatures(s) at which a physical change in a material occurs is usually characteristic of that material. Moisture sorption isotherms provide evaluation of the degree of hydroscopicity associated with a given material and characterization of non-hydrates and hydrates. Lastly, XRD is a technique that detects long-range order in a crystalline material. Moisture Sorption Isotherms were generated using a VTI SGA-100 flow instrument. The samples were analyzed at 25° C. from 0-95% relative humidity (RH) for adsorption and from 95-5% RH for desorption in steps of 5% RH. The adsorption and desorption isotherms were generated as a graph of the % weight change vs. % RH.

The results in this text go back to patent publication US20040014672A1, “Novel crystalline form of 6-hydroxy-3-(4-[2-(piperidin-1-yl)ethoxy]phenoxy)-2-(4-methoxyphenyl)benzo[b]thiophene hydrochloride” (priority 2003, published 2004).

For the compound `COc1ccc(-c2sc3cc(O)ccc3c2Oc2ccc(OCCN3CCCCC3)cc2)cc1.Cl` [F-V, 6-hydroxy-3-(4-[2-(piperidin-1-yl)ethoxy]phenoxy)-2-(4-methoxyphenyl)benzo[b]thiophene hydrochloride], the “change in the diffraction pattern on heating” value in data set [1] is “no significant change”. Moreover, the “higher aqueous solubility relative to F-III” value in the data set “Aqueous solubility” was ~10%. For the same compound, in data set [2], the “weight increase in moisture sorption/desorption isotherm” value is 0.11%.
